One series has as its system Aphis fabae. The experiment in a line: Critical concentration test/root-systemic action. In kind it is in vivo. The settings on record: 48 h, 20 ppm in soil, infested after 7 days, evaluated after a further 2 days, read-out: Degree of destruction in % at active compound concentrations in ppm (root-systemic action). Here is the method: Critical concentration test/root-systemic action
Solvent: 4 parts by weight of acetone
(§1) Emulsifier: 1 part by weight of alkylaryl polyglycol ether
To produce a suitable preparation of active compound, 1 part by weight of active compound is mixed with the stated amount of solvent, the stated amount of emulsifier is added and the concentrate is diluted with water to the desired concentration.
The preparation of active compound is intimately mixed with soil. The concentration of the active compound in the preparation is of practically no importance, only the amount by weight of active compound per unit volume of soil, which is given in ppm (=mg/1), being decisive. The treated soil is transferred into pots and these are planted with pregerminated broad beans. The active compound can in this way be taken up from the soil by the roots of the plants and be transported into the leaves.
After a further 2 days, the evaluation is made by counting or estimating the dead animals. The root-systemic action of the active compound is deduced from the mortality figures. It is 100% if all test animals have been killed and 0% if just as many test insects are still alive as in the case of the untreated control.

Series [1] relates to Lucilia cuprina res. larvae. Kind of series: Test with resistant Lucilia cuprina larvae. The settings on record: for mortality at 100 ppm: Lucilia cuprina, read-out: effectiveness (degree of destruction). It counts as in vivo. Here is the method: Test with resistant Lucilia cuprina larvae
Emulsifier: 35 parts by weight of ethylene glycol monomethyl ether 35 parts by weight of nonylphenol polyglycol ether
To produce a suitable preparation of active compound, three parts by weight of active compound are mixed with seven parts by weight of the abovementioned mixture and the concentrate thus obtained is diluted with water to the particular desired concentration.
About 20 Lucilia cuprina res. larvae are introduced into a test tube which contains approx. 1 cm^3 of horse meat and 0.5 ml of the preparation of active compound. After 24 hours, the degree of destruction is determined.

The subject of another series is Ctenocephalides felis. The experiment in a line: In-vitro flea test (all stages of development). The settings on record: no adult fleas after 11/2 times the development time. It counts as in vivo. Here is the method: In-vitro flea test (all stages of development)
Test object: All stages (eggs, larvae, pupae and adults) of Ctenocephalides felis.
Test method: Bloodmeal is dried overnight in a shallow dish at approximately 70° C. and subsequently screened using a mesh size of 0.63 mm.
1.8 g portions of the bloodmeal which has been prepared in this manner are placed into plastic Petri dishes .o slashed. 9.8 cm.
Using an Eppendorf pipette, 0.2 ml of the substance are added to the 1.8 g portions of bloodmeal (dilution 1:10). This means that for a use concentration of 1 ppm, the aqueous solution must have a concentration of 10 ppm. The solution is applied dropwise and uniformly over the entire area covered by the bloodmeal.
The dishes which have been prepared in this manner are allowed to dry overnight. Using a suitable device, the substance, now in the form of dried lumps of bloodmeal, is broken up and distributed homogeneously in the Petri dish by swirling. To the test dishes which have been prepared in this manner there is now added a spatula--tipful of flea eggs which have been obtained by screening (and which are derived from experimentally infected cats). The dish is sealed using Parafilm and shaken vigorously.
The test materials are incubated at 25° C. and a relative humidity of 85%. At certain intervals, the dishes are examined for stages of development of the fleas.
Test criterion: The criterion for the in-vitro activity of a substance is defined as the inhibition of flea development, or a standstill during the development before reaching the adult stage.
Effective: No adult fleas found after 11/2 times the development time.
Ineffective: Adult fleas found after 11/2 times the development time.

Series [2] relates to Musca domestics, strain WHO(N). Kind of series: Fly test. It counts as in vivo. The settings on record: 6 h, read-out: activity (flies destroyed). Here is the method:
Test animals: Musca domestics, strain WHO(N)
Solvent: 35 parts by weight of ethylene glycol mono-methyl ether
35 parts by weight of nonylphenol polyglycol ether
To produce a suitable formulation, three parts by weight of active compound are mixed with seven parts of the abovementioned solvent-emulsifier mixture and the emulsion concentrate thus obtained is diluted with water to the particular desired concentration.
2 ml of this preparation of active compound are pipetted onto paper filter discs (.o slashed. 9.5 cm) located in Petri dishes of a suitable size. After the discs have dried, 25 test animals are transferred into the Petri dishes and covered.
After 6 hours, the activity of the preparation of active compound is determined. The activity is expressed in %. 100% means that all flies have been destroyed; 0% means that no flies have been destroyed.

A further series concerns Nephotettix cincticeps. The experiment in a line: Nephotettix test. It counts as in vivo, Nephotettix cincticeps (green rice leafhopper). The settings on record: 144 h, after 6d, read-out: Degree of destruction in % after 6d; for mortality at 1e-05 %: active compound concentration 0.00001 %; for mortality at 0.0001 %: active compound concentration 0.0001 %; for mortality at 0.001 %: active compound concentration 0.001 %. Here is the method: (§2) Solvent: 7 parts by weight of dimethylformamide
as §1
(§3) To produce a suitable preparation of active compound, 1 part by weight of active compound is mixed with the stated amount of solvent and the stated amount of emulsifier, and the concentrate is diluted with water to the desired concentration.
Rice seedlings (Oryza sativa) are treated by being dipped into the preparation of active compound of the desired concentration and are infested with larvae of the green rice leafhopper (Nephotettix cincticeps) while the seedlings are still moist.
After the desired period of time, the destruction in % is determined. 100% means that all the leafhoppers have been killed; 0% means that none of the leafhoppers have been killed.

The test system of another series is Myzus persicae. The experiment in a line: Myzus test. It counts as in vivo, Myzus persicae (green peach aphid). The settings on record: 144 h, after 6d, read-out: Degree of destruction in % after 6d. Here is the method:
as §2, §1, §3
Cabbage leaves (Brassica oleracea) which are severely infested with the green peach aphid (Myzus persicae) are treated by being dipped into the preparation of active compound of the desired concentration.
After the desired period of time, the destruction in % is determined. 100% means that all the aphids have been killed; 0% means that none of the aphids have been killed.

Structures are written as SMILES. Where two headings read alike, the source gives them in different places.

Turning to `CC(C)(C)C(=O)NCCN1CC([N+](=O)[O-])=C2N(Cc3ccc(Cl)nc3)CCN2C1`, in the series on Aphis fabae, the mortality at 20 ppm was determined as 100%.

As usually defined, the inhibition is how much of the control response was suppressed. For the molecule `CCOC(=O)NCCN1CC([N+](=O)[O-])=C2N(Cc3ccc(Cl)nc3)CCN2C1` [Example 3, 6,7-dihydro-6-(2-ethoxy-carbonylamino-ethyl)-8-nitro-(5H)-3-(2-chloropyridin-5-yl-methyl)-imidazolidino-[2,3-f] -pyrimidine], the “activity compared with the prior art” value in series [1] (24 hours) is recorded as “superior activity compared with the prior art”. For the same molecule, the mortality at 100 ppm in series [1] (24 h) was determined as 100%. Besides, 10 ppm produced 100% inhibition in the series on Ctenocephalides felis.

Regarding `CC(C)NC(=O)OCCN1CC([N+](=O)[O-])=C2N(Cc3ccc(Cl)nc3)CCN2C1` [Example 14], in series [1] (24 hours), the “activity compared with the prior art” value is “superior activity compared with the prior art”. The mortality at 100 ppm in series [1] (24 h) was 100%.

In the case of `CC(C)(C)OC(=O)NCCN1CC([N+](=O)[O-])=C2N(Cc3ccc(Cl)nc3)CCN2C1` [Example 16], in series [1] (24 hours), the “activity compared with the prior art” value is listed as “superior activity compared with the prior art”. Further, the mortality at 100 ppm in series [1] (24 h) was 100%. Also, the mortality at 1000 ppm in series [2] amounted to 100%. Further, the inhibition at 10 ppm in the series on Ctenocephalides felis is 100%.

As for `O=C(NCCN1CC([N+](=O)[O-])=C2N(Cc3ccc(Cl)nc3)CCN2C1)OCc1ccccc1` [Example 18], the “activity compared with the prior art” value in series [1] (24 hours) is “superior activity compared with the prior art”. For the same molecule, in series [1] (100 ppm, 24 hours), the mortality at 100 ppm was found to be 100%. In addition, at 10 ppm the inhibition in the series with Ctenocephalides felis was 100%.

As usually defined, the logP is a log measure of how a compound divides between an organic and an aqueous phase. Lower therefore signals lower lipophilicity. As to `O=[N+]([O-])C1=C2N(Cc3ccc(Cl)nc3)CCN2CN(CCCCCO)C1` [II-13], in “physchem”, the logP was 0.97.

Molecule `O=[N+]([O-])C1=C2N(Cc3ccc(Cl)nc3)CCN2CN(CCCCCCO)C1` [II-14] displayed a lipophilicity (logP) in the series “physchem” of 0.74.

As for `O=[N+]([O-])C1=C2N(Cc3cnc(Cl)s3)CCN2CN(CCCCO)C1` [II-17], the log partition coefficient (logP) in the series “physchem” is 0.58. This logP and that of the molecule before are within 0.2 log units of each other.

For `O=[N+]([O-])C1=C2N(Cc3ccc(Cl)nc3)CCCN2CN(CCOCC(F)(F)F)C1` [drawing 134, reference compound], in the series with Nephotettix cincticeps, the mortality at 1e-05 % turned out to be 0%, the mortality at 0.0001 % stood at 60% and the mortality at 0.001 % is 100%.

In the case of `CNC(=O)OCCCN1CC([N+](=O)[O-])=C2N(Cc3ccc(Cl)nc3)CCN2C1` [drawing 135], in the series with Nephotettix cincticeps, the mortality at 1e-05 % was determined as 100%, the mortality at 0.0001 % was 100% and the mortality at 0.001 % is 100%.

`CC(=O)OCCCN1CC([N+](=O)[O-])=C2N(Cc3ccc(Cl)nc3)CCN2C1` [drawing 136]: in the series on Nephotettix cincticeps, the mortality at 1e-05 % turned out to be 100%, the mortality at 0.0001 % came out at 100% and the mortality at 0.001 % turned out to be 100%.

As to `O=C(NCCCCCCCl)OCCCN1CC([N+](=O)[O-])=C2N(Cc3ccc(Cl)nc3)CCN2C1` [drawing 143], the mortality at 0.001 % in the series on Myzus persicae (active compound concentration 0.001 %) is 100%. Moreover, the mortality at 0.01 % in the series on Myzus persicae (active compound concentration 0.01 %) came to 100%.

For the origin of these results see patent publication US6054459A, “Substituted 1,2,3,4-tetrahydro-5-nitro-pyrimidines” (priority 1994, dated 2000).
